Where a name gives a salt, the structure may show the parent alone.
Assay: in vitro
Settings: rat, gh3-tre-luc cells, AC50 (uM) modified / 1000

Question: Which CC50 at 24 h does the source give for `NS(=O)(=O)c1cc2c(cc1C(F)(F)F)NC(Cc1ccccc1)NS2(=O)=O` (stereo not drawn) [Bendroflumethiazide] here?
Answer: Its CC50 at 24 h is > 20 µM.

Question: With `N#CC(Cl)(Cl)Cl` [Trichloroacetonitrile] as the compound, how does the CC50 at 24 h read?
Answer: Its CC50 at 24 h is > 90 µM.

Question: Which CC50 at 24 h does the source give for `CCCCCCCCC1CO1` (stereo not drawn) [1,2-Epoxydecane] here?
Answer: The CC50 at 24 h was > 90 µM.

Question: Which CC50 at 24 h does the source give for `N#CC(C#N)=Cc1cc(O)c(O)c(O)c1` [Tyrphostin 25] here?
Answer: Its CC50 at 24 h is 28.5 µM.

Question: With `CC(C)(C)NCC(O)c1ccc(O)c(CO)n1` (stereo not drawn) [Pirbuterol hydrochloride] as the compound, how does the CC50 at 24 h read?
Answer: The CC50 at 24 h was > 50 µM.

Question: For `CCCCCc1ccc(Cl)cc1`, which CC50 at 24 h is on record?
Answer: The CC50 at 24 h was > 90 µM.

Question: Which CC50 at 24 h does the source give for `CCCNC(=O)NS(=O)(=O)c1ccc(Cl)cc1` [Chlorpropamide] here?
Answer: Its CC50 at 24 h is > 90 µM.

Question: With `CCOC(=O)c1ccc(I)cc1` [Ethyl 4-iodobenzoate] as the compound, how does the CC50 at 24 h read?
Answer: Its CC50 at 24 h is > 90 µM.

Question: With `CCN(CC)CCO[C@H]1CC[C@@]2(C)C(=CC[C@@H]3[C@@H]2CC[C@]2(C)C(=O)CC[C@@H]32)C1` [3beta-(2-Diethylaminoethoxy)androst-5-en-17-one hydrochloride] as the compound, how does the CC50 at 24 h read?
Answer: The CC50 at 24 h was > 50 µM.

Question: For `O=C(O)C(Cl)(Cl)Cl` [Trichloroacetic acid], which CC50 at 24 h is on record?
Answer: The CC50 at 24 h was > 90 µM.

Question: With `COc1ccc2[nH]c([S+]([O-])Cc3ncc(C)c(OC)c3C)nc2c1` (stereo not drawn) [Omeprazole] as the compound, how does the CC50 at 24 h read?
Answer: Its CC50 at 24 h is > 90 µM.

Question: With `CCCCC(CC)COC(=O)/C=C/c1ccc(OC)cc1` (stereo not drawn) [2-Ethylhexyl trans-4-methoxycinnamate] as the compound, how does the CC50 at 24 h read?
Answer: Its CC50 at 24 h is > 90 µM.

Question: For `CSc1c(Cl)c(Cl)c(Cl)c(Cl)c1Cl` [Pentachlorothioanisole], which CC50 at 24 h is on record?
Answer: The CC50 at 24 h was 81.6 µM.

Question: Which CC50 at 24 h does the source give for `NC(=O)c1cc[n+](CC2=C(C(=O)[O-])N3C(=O)[C@@H](NC(=O)Cc4cccs4)[C@H]3SC2)cc1` [Cefalonium] here?
Answer: Its CC50 at 24 h is > 20 µM.

Question: For `O=C(c1ccc(O)cc1)c1ccc(Cl)cc1` [4-Hydroxy-4'-chlorobenzophenone], which CC50 at 24 h is on record?
Answer: Its CC50 at 24 h is > 90 µM.

Question: For `O=C(Cn1cnnn1)N[C@@H]1C(=O)N2C(C(=O)O)=C(CSc3nncs3)CS[C@H]12` [Ceftezole sodium], which CC50 at 24 h is on record?
Answer: Its CC50 at 24 h is > 50 µM.

Question: With `ICCc1ccccc1` [2-Iodoethylbenzene] as the compound, how does the CC50 at 24 h read?
Answer: Its CC50 at 24 h is > 90 µM.

Question: For `NCC(CC(=O)O)c1ccc(Cl)cc1` (stereo not drawn) [Baclofen], which CC50 at 24 h is on record?
Answer: The CC50 at 24 h was > 50 µM.

Question: For `Cc1cc(=O)[nH]c(=S)[nH]1` [6-Methyl-2-thiouracil], which CC50 at 24 h is on record?
Answer: Its CC50 at 24 h is > 90 µM.

Question: With `C(CCOCC1CO1)COCC1CO1` (stereo not drawn) [1,4-Butanediol diglycidyl ether] as the compound, how does the CC50 at 24 h read?
Answer: Its CC50 at 24 h is > 90 µM.

Question: With `CC(c1cc2ccccc2s1)N(O)C(N)=O` (stereo not drawn) [Zileuton] as the compound, how does the CC50 at 24 h read?
Answer: The CC50 at 24 h was > 90 µM.

Question: For `C=CCOc1nc(OCC=C)nc(OCC=C)n1` [2,4,6-Tris(allyloxy)-1,3,5-triazine], which CC50 at 24 h is on record?
Answer: The CC50 at 24 h was > 90 µM.

Question: With `CN1CCN(Cc2cc(-c3ccc4[nH]c(=O)oc4c3)co2)[C@@H](c2ccc(F)cc2)C1` [AVE8488] as the compound, how does the CC50 at 24 h read?
Answer: Its CC50 at 24 h is 24.8 µM.

Question: Which CC50 at 24 h does the source give for `COC(CC(C)CCCC(C)(C)O)OC` (stereo not drawn) [Hydroxycitronellal dimethyl acetal] here?
Answer: Its CC50 at 24 h is > 90 µM.

Question: Which CC50 at 24 h does the source give for `N#Cc1nc(Cl)c(Cl)c(Cl)c1Cl` [3,4,5,6-Tetrachloropyridine-2-carbonitrile] here?
Answer: The CC50 at 24 h was 3 µM.

Question: For `C(=C\c1ccncc1)/c1ccccc1` [4-Styrylpyridine], which CC50 at 24 h is on record?
Answer: The CC50 at 24 h was > 50 µM.

Question: With `Cc1cc(C)c(C2=C(OC(=O)CC(C)(C)C)C3(CCCC3)OC2=O)c(C)c1` [Spiromesifen] as the compound, how does the CC50 at 24 h read?
Answer: The CC50 at 24 h was > 100 µM.

Question: With `O=C1OC(CN2CCOCC2)CN1/N=C/c1ccc([N+](=O)[O-])o1` (stereo not drawn) [Furaltadone hydrochloride] as the compound, how does the CC50 at 24 h read?
Answer: Its CC50 at 24 h is > 20 µM.

Question: For `O=C(O)P(=O)(O)O` [Foscarnet trisodium], which CC50 at 24 h is on record?
Answer: Its CC50 at 24 h is > 50 µM.

Question: Which CC50 at 24 h does the source give for `COc1ccc2c(=O)c(C)c(-c3ccccc3)oc2c1CN(C)C` [Dimefline hydrochloride] here?
Answer: Its CC50 at 24 h is > 50 µM.

Question: Which CC50 at 24 h does the source give for `CC1=C(C)C(=O)C(CCCCC#CCCCC#CCO)=C(C)C1=O` [Docebenone] here?
Answer: The CC50 at 24 h was 23.5 µM.

Question: With `CC(=O)OCC(=O)[C@H]1CC[C@H]2[C@@H]3CC[C@H]4C[C@H](O)CC[C@]4(C)[C@H]3C(=O)C[C@]12C` [Alfadolone acetate] as the compound, how does the CC50 at 24 h read?
Answer: Its CC50 at 24 h is > 20 µM.

Same assay, conditions: rat, gh3-tre-luc cells, AC50 (uM) modified / 1000, Tox21_110001=Tox21_111817; viability, 1 nM T3 present, 24 h

Question: With `O=C1C[N+]([O-])=C(c2ccccc2)c2cc(Cl)ccc2N1` [Demoxepam] as the compound, how does the CC50 at 24 h read?
Answer: Its CC50 at 24 h is > 50 µM.

Same assay, conditions: rat, gh3-tre-luc cells, AC50 (uM) modified / 1000, Tox21_110001=Tox21_201195; viability, 1 nM T3 present, 24 h

Question: For `COc1c(C(C)(C)C)cc([N+](=O)[O-])c(C)c1[N+](=O)[O-]` [Musk ambrette], which CC50 at 24 h is on record?
Answer: Its CC50 at 24 h is > 90 µM.

Same assay, conditions: rat, gh3-tre-luc cells, AC50 (uM) modified / 1000, Tox21_110001=Tox21_202023; viability, 1 nM T3 present, 24 h

Question: For `ClCC(Cl)CCl` [1,2,3-Trichloropropane], which CC50 at 24 h is on record?
Answer: The CC50 at 24 h was > 90 µM.

Same assay, conditions: rat, gh3-tre-luc cells, AC50 (uM) modified / 1000, Tox21_110001=Tox21_300739; viability, 1 nM T3 present, 24 h

Question: For `COc1cc(Cl)c(OC)cc1Cl` [Chloroneb], which CC50 at 24 h is on record?
Answer: The CC50 at 24 h was > 90 µM.

Reference: PMC6792352, “Limited Chemical Structural Diversity Found to Modulate Thyroid Hormone Receptor in the Tox21 Chemical Library” (Environmental Health Perspectives, 2019)
